In the NIST ThermoML archive (doi:10.1016/j.fluid.2018.12.016):

Conditions: Liquid, Surface laser light scattering (SLLS)

C [methane] + CCCCCCCCCC
Conditions | interfacial tension [mN/m]
310.93 K, 36221 kPa | 1.41e-05
310.94 K, 36221 kPa | 1.93e-05
310.95 K, 36187 kPa | 0.000902
310.96 K, 36198 kPa | 0.000591
310.97 K, 34448 kPa | 0.1569
310.97 K, 35150 kPa | 0.08112
310.97 K, 35795 kPa | 0.0247
310.97 K, 35857 kPa | 0.01978
310.97 K, 35989 kPa | 0.01122
310.97 K, 36092 kPa | 0.00519
310.97 K, 36215 kPa | 0.0001152
310.97 K, 36218 kPa | 4.75e-05
310.98 K, 35498 kPa | 0.04752
310.98 K, 35946 kPa | 0.014
310.98 K, 36206 kPa | 0.000326
310.99 K, 36151 kPa | 0.002584
311 K, 36213 kPa | 0.00015
311.12 K, 35885 kPa | 0.01746
